Laboratory results published in ChEMBL document CHEMBL3044791, “Synthesis and Structure-Activity Relationships of Vasicine Analogues as Bronchodilatory Agents” (2005).

How the values were obtained:
[1] = system: Tissue; assay: Bronchodilatory activity in histamine-precontracted Cavia porcellus (guinea pig) trachea at 30 ug/ml; assay type: functional
[2] = system: Tissue; assay: Bronchodilatory activity in acetylcholine-precontracted Cavia porcellus (guinea pig) trachea at 30 ug/ml; assay type: functional

Structure (SMILES) | Activity [1] | Activity [2]
CCc1nc2ccccc2c(=O)n1-c1ccc(F)cc1 | 20% | –
CCc1nc2ccccc2c(=O)n1-c1ccccc1 | 100% | –
Cc1nc2ccccc2c(=O)n1-c1ccc(F)cc1 | 80% | –
Cn1c(=O)c2c(ncn2CCO)n(C)c1=O [ETOFYLLINE] | 40% | 40%
Cc1nc2ccccc2c(=O)n1-c1ccccc1 | 100% | –
O=C1CC(c2ccccc2)N=C2CCCCCN12 (centres undefined) | 50% | 30%
O=c1c2ccccc2nc2n1CCCCC2 | 100% | 100%
O=c1c2ccccc2nc2n1CCC2 [DEOXYVASICINONE] | 20% | –
O=c1c2cc3c(cc2nc2n1CCCC2)OCO3 | 50% | 40%
O=c1c2ccccc2nc2n1CCCC2 | 40% | –
O=c1c2cc3c(cc2nc2n1CCCCC2)OCO3 | 100% | 100%
O=C1CC(c2ccccc2)N=C2CCCCN12 (centres undefined) | 20% | –
CCCc1nc2ccccc2c(=O)n1-c1ccc(F)cc1 | 10% | –
CCCc1nc2ccccc2c(=O)n1-c1ccccc1 | 50% | –
